Measured values taken from patent US20260274894A1, “CYCLIC POLYPEPTIDE COMPOUND AND USE THEREOF” (BIVISION PHARMACEUTICALS, INC., priority 2023, published 2026).
Where two headings read alike, the source gives them in different places. Each block holds one compound with its values, some of them ahead of it. Numbered stars: 1 amine (or outer) side, 2 acyl side, 3 side chain; on linkers, the order of the positions; unused ones are H or OH. Bridge positions count the residues as written; N and C are the ends. Square brackets hold non-standard residues; d marks the D form. Side chains are listed from the residue outwards. Peptide text beside a SMILES is read from it. * marks the point of attachment. ξ: configuration not given here. NH(CH2)2(4-DOTA-piperazinyl) = O=C(O)CN1CCN(CC(=O)O)CCN(CC(=O)N2CCN(CCN*)CC2)CCN(CC(=O)O)CC1; NH(CH2)2O(CH2)2NHDOTA = O=C(O)CN1CCN(CC(=O)O)CCN(CC(=O)NCCOCCN*)CCN(CC(=O)O)CC1; X5 = CCCCCC(=O)N[C@@H](CSCc1cccc(C[*:2])c1)C(=O)N1CCC[C@@H](NC(=O)[*:1])C1; X6 = CCCCCC(=O)N[C@@H](CSCc1cccc(C[*:2])c1)C(=O)C1CCC[C@@H](CC(=O)[*:1])C1; X2 = O=C(O)CN1CCN(CC(=O)O)CCN(CC(=O)N2CCN(CCCN*)CC2)CCN(CC(=O)O)CC1; DOTA = O=C(O)CN1CCN(CC(=O)O)CCN(CC(=O)*)CCN(CC(=O)O)CC1; Azetidine3carboxylic = O=C(C1CN([*:1])C1)[*:2]; mXylylene = c1cc(C[*:1])cc(C[*:2])c1; Cha = N[C@@H](CC1CCCCC1)C(=O)O; Dab = NCC[C@H](N)C(=O)O; ξQ = NC(=O)CCC(N)C(=O)O; Hexanoyl = CCCCCC(=O)*; AEEA = NCCOCCOCC(=O)O; CO = O=C([*:1])[*:2]; Ahx = NCCCCCC(=O)O; ξP = O=C(O)C1CCCN1; GABA = NCCCC(=O)O; ξC = NC(CS)C(=O)O; NHBu = CCCCN*

Assays:
[1] = Determination of C Log P (n-octanol/water partition, gamma counts); type: physicochemical
Method: Two EP tubes were taken, and 100 μL of saturated n-octanol aqueous solution and 80 µL of pure water were added to each tube, respectively. […] After shaking and mixing for 2 hours, the tubes were centrifuged at room temperature at 2000 rpm/min for 5 minutes. 20 μL was taken from the upper layer (lipid layer) and lower layer (aqueous layer) of each tube, and gamma counts were measured.

HT1080 2 # = test: Therapeutic results of ^177Lu-labeled compound in tumor-bearing mice (tumor volume); type: in vivo, Balb/c Nude mice
Method: The body weight and tumor size were measured.

FAP protein = target: T1, FAP protein (Homo sapiens, UniProt Q12884); test: Biacore test of compound affinity to FAP protein; settings: Biacore 8K, SA chip, 15° C., 1:1 binding model; for Kd: read-out: pKD (FAP) (converted)
T1 construct: purchased Sinobiological
T1 sequence (Q12884 1-760): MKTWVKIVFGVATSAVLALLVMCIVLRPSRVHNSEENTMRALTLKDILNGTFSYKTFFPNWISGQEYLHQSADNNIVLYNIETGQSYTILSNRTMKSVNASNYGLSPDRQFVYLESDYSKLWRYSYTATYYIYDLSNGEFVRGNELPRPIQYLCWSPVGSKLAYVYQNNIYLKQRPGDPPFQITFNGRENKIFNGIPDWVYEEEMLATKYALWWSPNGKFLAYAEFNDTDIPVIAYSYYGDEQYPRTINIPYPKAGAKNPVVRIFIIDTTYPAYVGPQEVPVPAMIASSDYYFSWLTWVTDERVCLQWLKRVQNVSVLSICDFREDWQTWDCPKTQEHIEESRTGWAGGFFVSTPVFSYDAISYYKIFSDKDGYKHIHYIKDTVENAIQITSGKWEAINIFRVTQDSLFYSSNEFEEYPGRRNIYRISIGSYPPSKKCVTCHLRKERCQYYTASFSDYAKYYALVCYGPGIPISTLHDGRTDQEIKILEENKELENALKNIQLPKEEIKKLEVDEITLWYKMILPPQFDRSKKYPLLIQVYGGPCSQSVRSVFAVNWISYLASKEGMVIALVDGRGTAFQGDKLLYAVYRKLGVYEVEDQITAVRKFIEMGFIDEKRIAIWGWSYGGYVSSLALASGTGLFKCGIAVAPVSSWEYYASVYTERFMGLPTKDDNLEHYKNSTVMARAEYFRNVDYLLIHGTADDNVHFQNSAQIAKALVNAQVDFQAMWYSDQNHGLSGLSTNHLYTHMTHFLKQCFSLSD
Method: The Biacore 8K (Cytiva) instrument was used to detect ligand binding of the FAP protein (Sinobiological). FAP protein was captured on the SA chip. […] The sensor surface was conditioned by injecting 1M NaCl three consecutive times in 50 mM NaOH. After each ligand injection, additional cleaning was performed using isopropanol in 1M NaCl and 50 mM NaOH (flow path 1 and 2, flow rate of 10 μL/min, injection time of 60 s). […] The analyte was run under the following conditions: analysis temperature of 15° C., analysis step=all set to LMW kinetics; cycle type=single cycle (contact time of 90 s, dissociation time of 1800 s, flow rate of 30 μL/min, flow channels 1 and 2); channel detection=2-1. Data was evaluated using the Biacore Insight Evaluation Software, and the data were fitted to a 1:1 binding model. The Biacore results are shown in Table 2 below: pKD=−Log KD, where KD is the binding affinity of the compound to the FAP protein as measured by Biacore.

Kd (FAP protein): < 10 nM
Structure (SMILES): CCCCCC(=O)N[C@H]1CSCc2cccc(c2)CSCC(C(=O)N[C@@H](CCC(=O)NCCCN2CCN(C(=O)CN3CCN(CC(=O)O)CCN(CC(=O)O)CCN(CC(=O)O)CC3)CC2)C(=O)O)NC(=O)[C@H](Cc2ccccc2)NC(=O)[C@H](CCC(N)=O)NC(=O)[C@H]([C@@H](C)O)NC(=O)C2CCCN2C(=O)C2CN(C2)C1=O (stereo partly drawn) [JHDC45, Hex-[Cys(3MeBn)-hhy39-Pro-Thr-Gln-Phe-Cys]-Glu-(aminopropylpiperazine-DOTA)-NH2] (Hexanoyl-C[Azetidine3carboxylic][ξP]TQF[ξC]E(X2)-OH; linker 1-7 via mXylylene)

pKD (FAP) (FAP protein): B (B: 7<pKD<8)
Structure (SMILES): CCCCNC(=O)N[C@H]1CSCc2cccc(c2)CSC[C@@H](C(=O)N[C@@H](CCC(=O)NCCN2CCN(C(=O)CN3CCN(CC(=O)O)CCN(CC(=O)O)CCN(CC(=O)O)CC3)CC2)C(=O)O)NC(=O)[C@H](CC2CCCCC2)NC(=O)[C@H](CCC(N)=O)NC(=O)[C@H]([C@@H](C)O)NC(=O)[C@@H]2CCCN2C(=O)C2CN(C2)C1=O [JHDC46, nBu-urea-[Cys(3MePy)-hhy39-Pro-Thr-Gln-hhy34-Cys]-Glu-(aminoethylpiperazine-DOTA)-OH] ({NHBu-CO}-C[Azetidine3carboxylic]PTQ[Cha]CE(NH(CH2)2(4-DOTA-piperazinyl))-OH; linker 1-7 via mXylylene)

Kd (FAP protein): 10 to 100 nM
Structure (SMILES): CCCCNC(=O)N[C@H]1CSCc2cccc(c2)CSC[C@@H](C(=O)N[C@@H](CCC(=O)NCCN2CCN(C(=O)CN3CCN(CC(=O)O)CCN(CC(=O)O)CCN(CC(=O)O)CC3)CC2)C(=O)O)NC(=O)[C@H](Cc2ccccc2)NC(=O)[C@H](CCC(N)=O)NC(=O)[C@H]([C@@H](C)O)NC(=O)C2CCCN2C(=O)C2CN(C2)C1=O (stereo partly drawn) [JHDC50, nBu-urea-[Cys(3MeBn)-hhy39-Pro-Thr-Gln-Phe-Cys]-Glu-(aminoethylpiperazine-DOTA)-OH] ({NHBu-CO}-C[Azetidine3carboxylic][ξP]TQFCE(NH(CH2)2(4-DOTA-piperazinyl))-OH; linker 1-7 via mXylylene)

Kd (FAP protein): < 10 nM
Structure (SMILES): CCCCNC(=O)N[C@H]1CSCc2cccc(c2)CSCC(C(=O)N[C@@H](CCNC(=O)CCCNC(=O)CN2CCN(CC(=O)O)CCN(CC(=O)O)CCN(CC(=O)O)CC2)C(=O)O)NC(=O)[C@H](CC2CCCCC2)NC(=O)[C@H](CCC(N)=O)NC(=O)[C@H]([C@@H](C)O)NC(=O)[C@@H]2CCCN2C(=O)C2CN(C2)C1=O (stereo partly drawn) [JHDC55, nBu-urea-[Cys(3MeBn)-hhy39-Pro-Thr-Gln-hhy34-Cys]-DABA-(ABA-DOTA)-OH] ({NHBu-CO}-C[Azetidine3carboxylic]PTQ[Cha][ξC][Dab]([GABA-DOTA])-OH; linker 1-7 via mXylylene)

More lines, now with the values behind:

Structure (SMILES): CCCCCC(=O)N[C@H]1CCCCn2cc(nn2)CC(C(=O)N[C@@H](CCCCNC(=O)CN2CCN(CC(=O)O)CCN(CC(=O)O)CCN(CC(=O)O)CC2)C(=O)O)NC(=O)[C@H](Cc2ccccc2)NC(=O)[C@H](CCC(N)=O)NC(=O)[C@H]([C@@H](C)O)NC(=O)C2CCCN2C(=O)N[C@@H]2CCCN(C2)C1=O (single isomer, unassigned) [^177Lu -JHDC11, metal not drawn]
logP [1]: -3.65

Structure (SMILES): CCCCCC(=O)N[C@H]1CCCCn2cc(nn2)CSC[C@@H](C(=O)N[C@@H](CCCCNC(=O)COCCNC(=O)CN2CCN(CC(=O)O)CCN(CC(=O)O)CCN(CC(=O)O)CC2)C(=O)O)NC(=O)[C@H](Cc2ccccc2)NC(=O)[C@H](CCC(N)=O)NC(=O)[C@H]([C@@H](C)O)NC(=O)[C@@H]2CCCN2C(=O)C2CN(C2)C1=O (single isomer, unassigned) [^177Lu -JHDC12, metal not drawn]
logP [1]: -3.81

Structure (SMILES): CCCCNC(=O)N[C@H]1CSCc2cncc(c2)CSC[C@@H](C(=O)N[C@@H](CCC(=O)NCCN2CCN(C(=O)CN3CCN(CC(=O)O)CCN(CC(=O)O)CCN(CC(=O)O)CC3)CC2)C(=O)O)NC(=O)[C@H](CC2CCCCC2)NC(=O)[C@H](CCC(N)=O)NC(=O)[C@H]([C@@H](C)O)NC(=O)[C@@H]2CCCN2C(=O)C2CN(C2)C1=O (single isomer, unassigned) [^177Lu-JHDC46, metal not drawn]
Tumor volume (mm^3) (HT1080 2 #; Day 0): 400.31 ± 78.63 mm^3 | Tumor volume (mm^3) (HT1080 2 #; Day 2): 483.08 ± 95.00 mm^3 | Tumor volume (mm^3) (HT1080 2 #; Day 6): 203.26 ± 49.63 mm^3 | Tumor volume (mm^3) (HT1080 2 #; Day 9): 168.29 ± 33.83 mm^3 | Tumor volume (mm^3) (HT1080 2 #; Day 13): 313.94 ± 119.95 mm^3 | Tumor volume (mm^3) (HT1080 2 #; Day 16): 686.05 ± 297.66 mm^3

Structure (SMILES): CCCCCC(=O)N[C@H]1CSCc2cccc(c2)CSC[C@@H](C(=O)N[C@@H](CCC(=O)NCCOCCNC(=O)CN2CCN(CC(=O)O)CCN(CC(=O)O)CCN(CC(=O)O)CC2)C(=O)O)NC(=O)[C@H](Cc2ccccc2)NC(=O)[C@H](CCC(N)=O)NC(=O)[C@H]([C@@H](C)O)NC(=O)[C@@H]2CCCN2C(=O)C2CN(C2)C1=O [^177Lu -JHDC06, metal not drawn] (Hexanoyl-C[Azetidine3carboxylic]PTQFCE(NH(CH2)2O(CH2)2NHDOTA)-OH; linker 1-7 via mXylylene)
logP [1]: -2.69

Structure (SMILES): CCCCCC(=O)N[C@H]1CSCc2cccc(c2)CSC[C@@H](C(=O)N[C@@H](CCCCNC(=O)CCCCCNC(=O)CN2CCN(CC(=O)O)CCN(CC(=O)O)CCN(CC(=O)O)CC2)C(=O)O)NC(=O)[C@H](CC2CCCCC2)NC(=O)C(CCC(N)=O)NC(=O)[C@H]([C@@H](C)O)NC(=O)C2CCCN2C(=O)C[C@@H]2CCCC(C2)C1=O (some centres unmarked) [^177Lu -JHDC13, metal not drawn] ([ξP]T[ξQ][Cha]CK([Ahx-DOTA])-OH; linker N-5 via X6)
logP [1]: -1.3

Structure (SMILES): CCCCCC(=O)N[C@H]1CSCc2cccc(c2)CSC[C@@H](C(=O)N[C@@H](CCCCNC(=O)COCCOCCNC(=O)CN2CCN(CC(=O)O)CCN(CC(=O)O)CCN(CC(=O)O)CC2)C(=O)O)NC(=O)[C@H](CC2CCCCC2)NC(=O)[C@H](CCC(N)=O)NC(=O)[C@H]([C@@H](C)O)NC(=O)[C@@H]2CCCN2C(=O)N[C@@H]2CCCN(C2)C1=O [^177Lu -JHDC14, metal not drawn] (PTQ[Cha]CK([AEEA-DOTA])-OH; linker N-5 via X5)
logP [1]: -1.39

Structure (SMILES): CCCCCC(=O)N[C@H]1CSCc2cccc(c2)CSC[C@@H](C(=O)N[C@@H](CCCCNC(=O)COCCOCCNC(=O)CN2CCN(CC(=O)O)CCN(CC(=O)O)CCN(CC(=O)O)CC2)C(=O)O)NC(=O)CNC(=O)[C@H](CC2CCCCC2)NC(=O)[C@H](CCC(N)=O)NC(=O)[C@H]([C@@H](C)O)NC(=O)C2CCCN2C(=O)N[C@@H]2CCCN(C2)C1=O (some centres unmarked) [^177Lu -JHDC15, metal not drawn] ([ξP]TQ[Cha]GCK([AEEA-DOTA])-OH; linker N-6 via X5)
logP ([1]; read-out: ClogP): -1.6

Structure (SMILES): CCCCCC(=O)N[C@H]1CSCc2cc(CSCCNC(=O)CN3CCN(CC(=O)O)CCN(CC(=O)O)CCN(CC(=O)O)CC3)cc(c2)CSC[C@@H](C(=O)O)NC(=O)[C@H](Cc2ccccc2)NC(=O)[C@H](CCC(N)=O)NC(=O)[C@H]([C@@H](C)O)NC(=O)[C@@H]2CCCN2C(=O)[C@@H]2CCCN2C1=O [^177Lu-FAP-2286, metal not drawn, reference compound]
Tumor volume (mm^3) (HT1080 2 #; Day 0): 466.80 ± 118.37 mm^3 | Tumor volume (mm^3) (HT1080 2 #; Day 2): 630.23 ± 96.79 mm^3 | Tumor volume (mm^3) (HT1080 2 #; Day 6): 525.29 ± 100.39 mm^3 | Tumor volume (mm^3) (HT1080 2 #; Day 9): 1,041.55 ± 348.07 mm^3 | Tumor volume (mm^3) (HT1080 2 #; Day 13): 2,345.02 ± 298.66 mm^3 | Tumor volume (mm^3) (HT1080 2 #; Day 16): 3,180.37 ± 697.35 mm^3 | logP ([1]; read-out: ClogP): -2.74
